# Data: US10995091B2 (Proximagen, LLC, priority 2010, dated 2021)
# Target: T1, Human CXCR4 transfected HEK293 cells (Homo sapiens, UniProt P61073)
# T1 construct: expressed in transfected cells; host or cells: HEK293
# Experiment: CXCR4 functional calcium assay (calcium flux FLIPR, antagonism of SDF1 response)
# Format: cell-based
# Settings: CXCR4 functional activity, antagonism of SDF1 (EC50 concentration), read-out: CXCR4 fKi
# Procedure, shortened: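 Dose-dependent antagonism of the SDF1 response was read by FLIPR as Fluo-4 calcium signal (2 μM dye) in CXCR4-expressing human HEK293 cells, in HBSS with probenecid, BSA and HEPES at pH 7.4 and 37° C. Test compound was given before an EC50-level SDF1 challenge. Curves were then fitted.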
# T1 sequence (P61073 whole entry): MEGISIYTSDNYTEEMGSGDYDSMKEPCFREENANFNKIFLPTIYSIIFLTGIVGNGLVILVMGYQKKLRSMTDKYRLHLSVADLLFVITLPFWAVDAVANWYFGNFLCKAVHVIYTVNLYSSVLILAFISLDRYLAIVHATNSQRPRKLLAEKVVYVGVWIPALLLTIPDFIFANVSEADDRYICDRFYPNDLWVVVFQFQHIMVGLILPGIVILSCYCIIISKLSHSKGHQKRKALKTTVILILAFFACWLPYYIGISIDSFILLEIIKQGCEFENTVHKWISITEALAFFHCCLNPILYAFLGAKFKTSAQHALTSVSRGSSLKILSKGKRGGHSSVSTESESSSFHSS
row,Ki [nM],SMILES
1,< 20,"CC(C)N1CCC(N2CCCN(c3cccc(-c4nc5ccc(C#N)cc5[nH]4)n3)CC2)CC1 [Example 149, 2-(6-{4-[1-(Propan-2-yl)piperidin-4-yl]-1,4-diazepan-1-yl}pyridine-2-yl)-1H-1,3-benzodiazole-6-carbonitrile]"
2,< 20,"CCc1cnc(-c2cccc(N3CCCN(C4CCN([C@H](C)CC)CC4)CC3)n2)[nH]1 [Example 116, 1-{1-[(2R)-Butan-2-yl]piperidin-4-yl}-4-[6-(4-ethyl-1H-imidazol-2-yl)pyridine-2-yl]-1,4-diazepane]"
3,20 to 100,"CC(C)N1CCC(N2CCCN(c3cccc(C(=O)NCc4ncco4)n3)CC2)CC1 [Example 38, N-(1,3-Oxazol-2-ylmethyl)-6-{4-[1-(propan-2-yl)piperidin-4-yl]-1,4-diazepan-1-yl}pyridine-2-carboxamide]"
4,20 to 100,"Cc1nc(-c2cccc(NCCNC3CCCN(C4CCCC4)CC3)n2)[nH]c1C1CC1 (centres unmarked) [Example 246, 1-Cyclopentyl-N-(2-{[6-(5-cyclopropyl-4-methyl-1H-imidazol-2-yl)pyridin-2-yl]amino}ethyl)azepan-4-amine]"
5,20 to 100,"CCNC(=O)c1cccc(N2CCCN(C3CCN(Cc4ccccc4Cl)CC3)CC2)n1 [Example 137, 6-(4-{1-[(2-Chlorophenyl)methyl]piperidin-4-yl}-1,4-diazepan-1-yl)-N-ethylpyridine-2-carboxamide]"
6,500 to 1000,"COCCN1CCC(N2CCCN(c3cccc(C(=O)NCC4CC4)n3)CC2)CC1 [Example 71, N-(Cyclopropylmethyl)-6-{4-[1-(2-methoxyethyl)piperidin-4-yl]-1,4-diazepan-1-yl}pyridine-2-carboxamide]"
7,20 to 100,"CC(C)(C)N1CCC(N2CCCN(c3cccc(C(=O)NCC4CC4)n3)CC2)CC1 [Example 64, 6-[4-(1-tert-Butylpiperidin-4-yl)-1,4-diazepan-1-yl]-N-(cyclopropylmethyl)pyridine-2-carboxamide]"
8,500 to 1000,"CC(C)N1CCC(N2CCCC(Nc3cccc(C(=O)Nc4ccncc4)n3)C2)CC1 (centres unmarked) [Example 222, 6-({1-[1-(Propan-2-yl)piperidin-4-yl]piperidin-3-yl}amino)-N-(pyridin-4-yl)pyridine-2-carboxamide]"
9,< 20,"O=C(Nc1ccncc1)c1cccc(N2CCCN(C3CCN(Cc4ccccc4Cl)CC3)CC2)n1 [Example 54, 6-(4-{1-[(2-Chlorophenyl)methyl]piperidin-4-yl}-1,4-diazepan-1-yl)-N-(pyridine-4-yl)pyridine-2-carboxamide]"
10,20 to 100,"CC1CN(c2cccc(C(=O)Nc3ccncc3)n2)CCN(C2CCN(C(C)C)CC2)C1 (centres unmarked) [Example 182, 6-{6-Methyl-4-[1-(propan-2-yl)piperidin-4-yl]-1,4-diazepan-1-yl}-N-(pyridin-4-yl)pyridine-2-carboxamide]"
11,< 20,"Cc1cc(NC(=O)c2cccc(N3CCCN(C4CCN(C(C)C)CC4)CC3)n2)cc(C)n1 [Example 87, N-(2,6-Dimethylpyridin-4-yl)-6-{4-[1-(propan-2-yl)piperidin-4-yl]-1,4-diazepan-1-yl}pyridine-2-carboxamide]"
12,100 to 500,"CC(C)N1CC[C@@H](N2CCCN(c3cccc(C(=O)NCC4CC4)n3)CC2)[C@H](O)C1 [Example 216, N-(Cyclopropylmethyl)-6-{4-[(3R)-3-hydroxy-1-(propan-2-yl)piperidin-4-yl]-1,4-diazepan-1-yl}pyridine-2-carboxamide]"
13,20 to 100,"CC(C)N1CCC(N2CCCN(c3cccc(-c4cc5ccncc5[nH]4)n3)CC2)CC1 [Example 98, 1-[1-(Propan-2-yl)piperidin-4-yl]-4-(6-{1H-pyrrolo[2,3-c]pyridine-2-yl}pyridine-2-yl)-1,4-diazepane]"
14,100 to 500,"Cc1cccc2nc(-c3cccc(N4CCCN(C5CCN(C(C)C)CC5)CC4)n3)[nH]c12 [Example 143, 7-Methyl-2-(6-{4-[1-(propan-2-yl)piperidin-4-yl]-1,4-diazepan-1-yl}pyridine-2-yl)-1H-1,3-benzodiazole]"
